6 molecules from ChEMBL document CHEMBL5252580, “Ionization and lipophilicity in nonpolar media mimicking the cell membrane interior” (Bioorg Med Chem, 2023) can be followed below.

Holding throughout (format): physicochemical
Series [1] in a line: Lipophilicity, log P of the compound in octanol/water system by potentiometric titration method.
The nature of series [2]: Lipophilicity, log D of the compound in octanol/water system at pH 7 by potentiometric titration method.
Series [3] is described as follows: Lipophilicity, log D of the compound in octanol/water system at pH 7 by shake-flask assay based HPLC analysis.
A short description of series [4]: Lipophilicity, log P of the compound in toluene/water system by potentiometric titration method. Conditions: buffer.
A short description of series [5]: Lipophilicity, log D of the compound in toluene/water system at pH 7 by potentiometric titration method. Conditions: buffer.
The nature of series [6]: Lipophilicity, log D of the compound in toluene/water system at pH 7 by shake-flask assay based HPLC analysis. Conditions: buffer.
A short description of series [7]: Ionization constant, pKa of the compound in water by potentiometric titration method.
Series [8] is described as follows: Acidic ionization constant, pKa of the compound in water by potentiometric titration method.
Series [9] can be described thus: Basic ionization constant, pKa of the compound in water by potentiometric titration method.
Series [10] in a line: Ionization constant, pKa of the compound in water in presence of 20 to 27.4% acetonitrile cosolvent by potentiometric titration method. Conditions: water with 20 to 27.4% acetonitrile cosolvent.
Series [11] can be described thus: Ionization constant, pKa of the compound in water in presence of 30 to 35% acetonitrile cosolvent by potentiometric titration method. Conditions: water with 30 to 35% acetonitrile cosolvent.
The nature of series [12]: Ionization constant, pKa of the compound in water in presence of 40 to 42.6% acetonitrile cosolvent by potentiometric titration method. Conditions: water with 40 to 42.6% acetonitrile cosolvent.
Series [13] in a line: Basic ionization constant, pKa of the compound in 100% acetonitrile by UV-vis spectrophotometric titration method.
The nature of series [14]: Lipophilicity, log D of the compound assessed as retention index in nonpolar system in presence of 80% acetonitrile cosolvent by PLRP-S based RP-HPLC analysis.
Series [15] is described as follows: Ionization constant, pKa of the compound in water in presence of 80% acetonitrile cosolvent by PLRP-S based RP-HPLC analysis. To be noted: water with 80% acetonitrile cosolvent.
Where [16] appears, read: 100% acetonitrile, read-out: pKa.

Some results are limits rather than exact numbers.

In the case of `CCCCC(=O)N(Cc1ccc(-c2ccccc2-c2nnn[nH]2)cc1)[C@H](C(=O)O)C(C)C`, the figures for the logP in series [1] (read-out: logP) and in series [4] were 3.2 and 0.3, respectively. The logD (as a rule, the decadic logarithm of the distribution of all forms, ionised or not, between an organic phase and buffer at a given pH) in series [2] is under 0; in series [3], -1.32; in [5], under 0; in series [6], under -2.5.

Take `CC(C)Cc1ccc(C(C)C(=O)O)cc1` (centres undefined) [IBUPROFEN]: the logD in series [2] is 1.3; in [3], 1.07; in series [5], 0.2; in [6], -0.43. Further, in [4], the log partition coefficient (logP) (in general, a log measure of how a compound divides between an organic and an aqueous phase) was 3.1.

Regarding `NS(=O)(=O)c1cc2c(cc1Cl)NCNS2(=O)=O` [HYDROCHLOROTHIAZIDE], the pKa in series [7] stood at 8.68.

Regarding `Nc1cccc(O)c1` [3-AMINOPHENOL], the pKa in series [8] was determined as 9.82; in series [9] it was 4.36; in series [10], 4.13; in series [11], 4.07; in series [12], 4.01; in series [13] (setting [16]), 10.4. Further, the logP in series [1] (read-out: logP) is 0.1. Further, the logD is 0.1 in [2], -0.11 in [3] and -1.77 in series [6]. Further, the Retention_index in series [14] is -0.65.

`Cc1cccc(C)c1NC(=O)C1CCCCN1C` (centres undefined) [MEPIVACAINE]: the pKa came to 7.83 in series [7]; 7.88 in series [10]; 7.78 in series [11]; 7.74 in series [12]; 16.62 in series [13]; 5.9 in series [15]. Besides, the results for the log partition coefficient (logP) in series [1] and in series [4] were 3.3 and 1.4, respectively. Besides, the log distribution coefficient (logD) in [2] worked out at 1.1; in series [3], 0.92; in series [5], 0.8; in series [6], 0.89. Besides, the Retention_index in [14] was 0.22.

As to `CCn1cc(C(=O)O)c(=O)c2ccc(C)nc21` [NALIDIXIC ACID], the pKa amounted to 6.25 in [8]; 6.63 in series [10]; 7.1 in series [11]; 7.56 in series [12]; 6.17 in [13] (setting [16]). Further, the figures for the logD in series [3] and in series [6] were 0.35 and -0.12, respectively. In addition, the Retention_index in [14] is -0.15.
